Converted amounts (≈) assume the structure as drawn.
How the values were obtained:
Experiment in all cases: ≥ marks a high value that may be exact or a test limit, other limits are often not marked, values filed in µg/mL are converted to µM
[1] = tested on: Enterococcus faecalis ATCC 29212
[2] = tested on: Escherichia coli ATCC 25922
[3] = tested on: Escherichia coli UB1005
[4] = tested on: Salmonella enterica subsp. enterica serovar Choleraesuis CVCC 503
[5] = tested on: Salmonella enterica subsp. enterica serovar Pullorum C79-13
[6] = tested on: Salmonella enterica subsp. enterica serovar Typhimurium ATCC 14028
[7] = tested on: Salmonella enterica subsp. enterica serovar Typhimurium C77-31
[8] = tested on: Staphylococcus aureus ATCC 29213
[9] = tested on: Staphylococcus aureus ATCC 43300
[10] = tested on: Staphylococcus aureus
[11] = tested on: Staphylococcus epidermidis ATCC 12228
[12] = tested on: Streptococcus agalactiae
[13] = tested on: Bacillus cereus AS1.126
[14] = tested on: Enterococcus faecalis CGMCC 1.595
[15] = tested on: Enterococcus faecium CGMCC 1.2334
[16] = tested on: Escherichia coli AS1.349
[17] = tested on: Lactococcus lactis AS1.1690
[18] = tested on: Pseudomonas aeruginosa CGMCC 1.860
[19] = tested on: Staphylococcus aureus AS1.72
[20] = tested on: Pseudomonas aeruginosa K799
[21] = tested on: Salmonella enterica subsp. enterica serovar Typhimurium ATCC 14028s
[22] = tested on: Staphylococcus aureus ATCC 25923
[23] = tested on: Staphylococcus epidermidis C621
[24] = tested on: Bacillus subtilis 168
[25] = tested on: Escherichia coli B
[26] = tested on: Pseudomonas aeruginosa

CC[C@H](C)[C@H](N)C(=O)N[C@H](C(=O)N[C@H](C(=O)N[C@@H](CS)C(=O)N[C@@H](CCCN=C(N)N)C(=O)N[C@@H](CCCCN)C(=O)N1CCC[C@H]1C(=O)N[C@H](C(=O)N[C@H](C(=O)N[C@@H](CS)C(=O)N[C@@H](CCCN=C(N)N)C(=O)N[C@@H](CCCCN)C(=O)N1CCC[C@H]1C(=O)N[C@H](C(=O)N[C@H](C(=O)N[C@H](C(N)=O)[C@@H](C)CC)[C@@H](C)CC)[C@@H](C)CC)[C@@H](C)CC)[C@@H](C)CC)[C@@H](C)CC)[C@@H](C)CC [IIICRKPIICRKPIII]
MIC [1]: > 64 µM | MIC [2]: 8 µM (≈ 15.1 µg/mL) | MIC [3]: 8 µM (≈ 15.1 µg/mL) | MIC [4]: ≥ 32 µM | MIC [5]: ≥ 32 µM | MIC [6]: 32 µM (≈ 60.5 µg/mL) | MIC [7]: ≥ 32 µM | MIC [8]: > 64 µM | MIC [9]: > 64 µM | MIC [10]: > 64 µM | MIC [11]: > 64 µM | MIC [12]: ≥ 64 µM

CC[C@H](C)[C@H](N)C(=O)N[C@@H](CS)C(=O)N[C@@H](CCCN=C(N)N)C(=O)N[C@@H](CCCCN)C(=O)N1CCC[C@H]1C(=O)N[C@H](C(=O)N[C@H](C(=O)N[C@@H](CS)C(=O)N[C@@H](CCCN=C(N)N)C(=O)N[C@@H](CCCCN)C(=O)N1CCC[C@H]1C(=O)N[C@H](C(=O)N[C@H](C(=O)N[C@@H](CS)C(=O)N[C@@H](CCCN=C(N)N)C(=O)N[C@@H](CCCCN)C(=O)N1CCC[C@H]1C(=O)N[C@H](C(N)=O)[C@@H](C)CC)[C@@H](C)CC)[C@@H](C)CC)[C@@H](C)CC)[C@@H](C)CC [ICRKPIICRKPIICRKPI]
MIC [1]: > 64 µM | MIC [2]: 8 µM (≈ 17.2 µg/mL) | MIC [3]: 4 µM (≈ 8.6 µg/mL) | MIC [4]: 16 µM (≈ 34.4 µg/mL) | MIC [5]: ≥ 64 µM | MIC [6]: 8 µM (≈ 17.2 µg/mL) | MIC [7]: 8 µM (≈ 17.2 µg/mL) | MIC [8]: > 64 µM | MIC [9]: > 64 µM | MIC [10]: > 64 µM | MIC [11]: > 64 µM | MIC [12]: ≥ 64 µM

CC(C)[C@H](N)C(=O)N[C@@H](Cc1c[nH]c2ccccc12)C(=O)N[C@@H](CCCN=C(N)N)C(=O)N[C@@H](CCCN=C(N)N)C(=O)N[C@@H](Cc1c[nH]c2ccccc12)C(=O)N[C@@H](CCCN=C(N)N)C(=O)N[C@@H](CCCN=C(N)N)C(=O)N[C@@H](Cc1ccccc1)C(=O)N[C@@H](Cc1c[nH]c2ccccc12)C(=O)O [VWRRWRRFW]
MIC [13]: 6.25 µM (≈ 9.05 µg/mL) | MIC [14]: 12.5 µM (≈ 18.1 µg/mL) | MIC [15]: 12.5 µM (≈ 18.1 µg/mL) | MIC [16]: 12.5 µM (≈ 18.1 µg/mL) | MIC [17]: 12.5 µM (≈ 18.1 µg/mL) | MIC [18]: 6.25 µM (≈ 9.05 µg/mL) | MIC [19]: 12.5 µM (≈ 18.1 µg/mL)

CC[C@H](C)[C@@H]1NC(=O)[C@H](CCCN=C(N)N)NC(=O)[C@H](C(C)C)NC(=O)[C@H](CCCN=C(N)N)NC(=O)[C@@H]2CCCN2C(=O)[C@@H](NC(=O)[C@H](CC(C)C)NC(=O)[C@@H](N)CCCN=C(N)N)CSSC[C@@H](C(=O)N[C@@H](CCCN=C(N)N)C(N)=O)NC(=O)[C@H](C(C)C)NC(=O)[C@H](CCCN=C(N)N)NC1=O [RLCPRVRIRVCR]
MIC [1]: > 21 µM | MIC [3]: 2.62 µM (≈ 3.99 µg/mL) | MIC [20]: 10.5 µM (≈ 16 µg/mL) | MIC [21]: 21 µM (≈ 31.9 µg/mL) | MIC [22]: > 21 µM | MIC [23]: 10.5 µM (≈ 16 µg/mL)

CC[C@H](C)[C@H](N)C(=O)N[C@H](C(=O)N[C@H](C(=O)N[C@@H](CS)C(=O)N[C@@H](CCCN=C(N)N)C(=O)N[C@@H](CCCCN)C(=O)N1CCC[C@H]1C(=O)N[C@H](C(=O)N[C@H](C(=O)N[C@@H](CS)C(=O)N[C@@H](CCCN=C(N)N)C(=O)N[C@@H](CCCCN)C(=O)N1CCC[C@H]1C(=O)N[C@H](C(=O)N[C@H](C(=O)N[C@@H](CS)C(=O)N[C@@H](CCCN=C(N)N)C(=O)N[C@@H](CCCCN)C(=O)N1CCC[C@H]1C(=O)N[C@H](C(=O)N[C@H](C(=O)N[C@@H](CS)C(=O)N[C@@H](CCCN=C(N)N)C(=O)N[C@@H](CCCCN)C(=O)N1CCC[C@H]1C(=O)N[C@H](C(=O)N[C@H](C(=O)N[C@H](C(N)=O)[C@@H](C)CC)[C@@H](C)CC)[C@@H](C)CC)[C@@H](C)CC)[C@@H](C)CC)[C@@H](C)CC)[C@@H](C)CC)[C@@H](C)CC)[C@@H](C)CC)[C@@H](C)CC)[C@@H](C)CC [IIICRKPIICRKPIICRKPIICRKPIII]
MIC [1]: 8 µM (≈ 26.5 µg/mL) | MIC [3]: 2 µM (≈ 6.63 µg/mL) | MIC [4]: 2 µM (≈ 6.63 µg/mL) | MIC [5]: 4 µM (≈ 13.3 µg/mL) | MIC [6]: 2 µM (≈ 6.63 µg/mL) | MIC [7]: 2 µM (≈ 6.63 µg/mL) | MIC [9]: 4 µM (≈ 13.3 µg/mL) | MIC [10]: 4 µM (≈ 13.3 µg/mL) | MIC [11]: 4 µM (≈ 13.3 µg/mL) | MIC [12]: 2 µM (≈ 6.63 µg/mL)

CC(C)[C@H](N)C(=O)N[C@@H](CS)C(=O)N[C@@H](CCCN=C(N)N)C(=O)N[C@@H](CCCCN)C(=O)N1CCC[C@H]1C(=O)N[C@H](C(=O)N[C@H](C(=O)N[C@@H](CS)C(=O)N[C@@H](CCCN=C(N)N)C(=O)N[C@@H](CCCCN)C(=O)N1CCC[C@H]1C(=O)N[C@H](C(=O)N[C@H](C(=O)N[C@@H](CS)C(=O)N[C@@H](CCCN=C(N)N)C(=O)N[C@@H](CCCCN)C(=O)N1CCC[C@H]1C(=O)N[C@H](C(=O)N[C@H](C(=O)N[C@@H](CS)C(=O)N[C@@H](CCCN=C(N)N)C(=O)N[C@@H](CCCCN)C(=O)N1CCC[C@H]1C(=O)N[C@H](C(N)=O)C(C)C)C(C)C)C(C)C)C(C)C)C(C)C)C(C)C)C(C)C [VCRKPVVCRKPVVCRKPVVCRKPV]
MIC [1]: > 64 µM | MIC [2]: 8 µM (≈ 22 µg/mL) | MIC [3]: 8 µM (≈ 22 µg/mL) | MIC [4]: ≥ 64 µM | MIC [5]: ≥ 64 µM | MIC [6]: 8 µM (≈ 22 µg/mL) | MIC [7]: 8 µM (≈ 22 µg/mL) | MIC [8]: > 64 µM | MIC [9]: > 64 µM | MIC [10]: > 64 µM | MIC [11]: > 64 µM | MIC [12]: ≥ 64 µM

CC[C@H](C)[C@H](NC(=O)[C@H](CCCCN)NC(=O)[C@H](CCCCN)NC(=O)[C@H](CC(C)C)NC(=O)[C@@H](NC(=O)[C@H](CCCCN)NC(=O)[C@H](CCCCN)NC(=O)[C@H](Cc1c[nH]c2ccccc12)NC(=O)[C@H](CC(N)=O)NC(=O)[C@@H](N)C(C)C)C(C)C)C(=O)N[C@H](C(=O)N[C@@H](CCCCN)C(=O)N[C@H](C(=O)N[C@@H](C)C(=O)N[C@@H](CCCCN)C(N)=O)C(C)C)[C@@H](C)CC [VNWKKVLKKIIKVAK]
MIC [24]: 0.7 µM (≈ 1.26 µg/mL) | MIC [25]: 0.7 µM (≈ 1.26 µg/mL) | MIC [26]: 19 µM (≈ 34.1 µg/mL) | MIC [10]: 15.6 µM (≈ 28 µg/mL)

— DBAASP
